Columns and labels:
[1] = tested on: RS4;11 human acute lymphoblastic leukemia subcutaneous xenograft tumors; test: RS4;11 human acute lymphoblastic leukemia mouse subcutaneous tumor xenograft model; format: in vivo, NOD/SCID mice; settings: 25 mg/kg single intragastric dose; Day 12 after the end of administration
Procedure: SPF female NOD/SCID mice (Shanghai Lingchang Biotech Co., Ltd.) were inoculated subcutaneously at the right side armpit with 1×10^7 RS4;11 cells (ATCC). When the mean tumor volume reached about 180 mm^3, the mice were divided into 3 groups according to the tumor size: vehicle, compound 1-1 (25 mg/kg) and compound 3-1 (25 mg/kg). The day of grouping was determined as d0. On d1, a single intragastric dose at a volume of 10 mL/kg was administered, and the animals were observed.
The calculation formula for tumor volume: Tumor volume (mm^3)=½×(a×b^2) (where a represents long diameter and b represents short diameter).
Relative tumor proliferation rate (T/C %) refers to the percentage of the relative tumor volume or tumor weight of the treatment and control groups at a certain time point. The calculation formula is as follows: T/C %=TRTV/CRTV×100% (TRTV: mean relative tumor volume (RTV) for treatment group; CRTV: mean RTV for vehicle control group; RTV=TVt/TV0, where TV0 is the tumor volume at grouping, TVt is the tumor volume after treatment).
Tumor growth inhibition rate (TGI %) is calculated according to the following formula: TGI %=(1−T/C)×100%. (T and C are the relative tumor volume (RTV) or tumor weight (TW) at a particular time point for the treatment and control groups, respectively).
The calculation formula for weight change rate (WCR) (%) is: WCR=(Wtt−Wt0)/Wt0×100%, where Wt0 is the body weight of the animal at grouping (i.e., d0), Wtt is the body weight of the animal at each measurement.
All experimental results are expressed as mean±SD (mean±standard deviation). The relative tumor volume of the treatment group was compared with that of the control group for any significant difference by T tests, wherein p<0.05 indicates a significant difference, and p<0.01 indicates a very significant difference.

[2] = tested on: RS4;11 cells; test: Inhibition of proliferation of RS4;11 human acute lymphocytic leukemia cells (CCK-8); format: cell-based; settings: 72 h compound exposure, CCK-8, 5% serum
Procedure: RS4;11 cells (from ATCC) in logarithmic growth phase and good cell condition were added to a centrifuge tube and centrifuged at 1500 rpm for 3 min in a low speed centrifuge. The supernatant was discarded, and 5 mL of complete medium (RPMI basic medium+10% FBS) was added using a pipette for cell resuspension. The cells were counted using a cell counter, diluted with complete medium to a cell density of 2×10^5 cells/mL, and an equivalent amount of RPMI basic medium was added to adjust the serum concentration to 5% and the cell density to 1×10^5 cells/mL for plate seeding. The cells were seeded on a 96-well plate at 100 μL/well using a pipettor, and incubated in an incubator at 37° C., 5% CO2 with saturated humidity. After 24 h of incubation, compounds were loaded using a nanoliter pipettor, 2 duplicate wells were set for each concentration, and cells without compound were used as negative controls. […] Inhibition rate (%)=(mean value of negative control group−mean value of experimental group)/(mean value of negative control group−mean value of blank group)×100%. A dose-response curve was fitted by four-parameter analysis, with the logarithm of compound concentration serving as abscissa and inhibition rate serving as ordinate, so that IC50 was calculated (Table 1).

[3] = biological target: T1, BCL-2/BAK (Homo sapiens, UniProt P10415); test: Inhibitory activity for BCL-2/BAK binding (Cisbio BCL-2/BAK (BH3) binding assay kit)
T1 construct: purchased Cisbio 63ADK000CB01PEG
Procedure: 500 nM Tag1-BCL-2 protein stock solution and 20 μM Tag2-BAK protein stock solution were diluted to 5 nM and 120 nM respectively with dilution buffer in kit (name: BCL-2/BAK (BH3) BINDING ASSAY KITS, cat. No.: 63ADK000CB01PEG, from Cisbio). 5 μL of Tag1-BCL-2 protein diluent was added to each well, then test compounds dissolved with DMSO were added to the wells with a nanoliter pipettor, allowing the final compound concentrations to be 200 nM to 0.0488 nM (4-fold gradient for 7 concentrations in total). Blank control wells (without enzyme) and negative control wells (with enzyme, plus vehicle DMSO) were set, and 2 replicate wells were set. Finally, 5 μL of Tag2-BAK protein diluent was added to each well, and the mixture was mixed well by centrifugation and incubated at 25° C. for 15 min. 100× anti-Tag1-Eu^3+ and 100× anti-Tag2-XL665 were both diluted to 1× working concentration with the detection buffer in the kit. Anti-Tag1-Eu^3+ and anti-Tag2-XL665 were mixed well in a 1:1 ratio, and the mixture was added to wells at 5 μL/well, and incubated at 25° C. for 2 h or more. The plate was read using a PE Envision multi-functional microplate reader ([…], emission: 665 nm) and IC50 (shown in Table 2) was calculated by four-parameter fitting.

[4] = biological target: T2, BCL-XL/BAK (Homo sapiens, UniProt Q07817); test: Inhibitory activity for BCL-XL/BAK binding (Cisbio BCL-XL/BAK (BH3) binding assay kit)
T2 construct: purchased Cisbio 63ADK000CB04PEG
Procedure: 300 nM Tag1-BCL-XL protein stock solution and 10 μM Tag2-BAK protein stock solution were diluted to 2 nM and 80 nM respectively with dilution buffer in kit (name: BCL-XL/BAK (BH3) BINDING ASSAY KITS, cat. No.: 63ADK000CB04PEG, from Cisbio). 5 μL of Tag1-BCL-XL protein diluent was added to each well, then different test compounds dissolved with DMSO were added to the wells with a nanoliter pipettor, allowing the final compound concentrations to be 2000 nM to 0.488 nM (4-fold gradient for 7 concentrations in total). Blank control wells (without enzyme) and negative control wells (with enzyme, plus vehicle DMSO) were set, and 2 replicate wells were set. Finally, 5 μL of Tag2-BAK protein diluent was added to each well, and the mixture was mixed well by centrifugation and incubated at 25° C. for 15 min. 100× anti-Tag1-Eu^3+ and 100× anti-Tag2-XL665 were both diluted to 1× working concentration with the detection buffer in the kit. Anti-Tag1-Eu^3+ and anti-Tag2-XL665 were mixed well in a 1:1 ratio, and the mixture was added to wells at 5 μL/well, and incubated at 25° C. for 2 h or more. The plate was read using a PE Envision multi-functional microplate reader ([…], emission: 665 nm) and IC50 (shown in Table 2) was calculated by four-parameter fitting.

T1 sequence (P10415 whole entry): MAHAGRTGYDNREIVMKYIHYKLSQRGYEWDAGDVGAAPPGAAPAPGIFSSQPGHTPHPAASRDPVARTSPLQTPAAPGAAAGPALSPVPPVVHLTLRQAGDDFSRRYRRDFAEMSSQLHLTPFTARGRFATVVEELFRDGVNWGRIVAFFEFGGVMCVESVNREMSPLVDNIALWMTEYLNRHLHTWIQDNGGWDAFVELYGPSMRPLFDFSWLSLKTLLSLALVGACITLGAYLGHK
T2 sequence (Q07817 whole entry): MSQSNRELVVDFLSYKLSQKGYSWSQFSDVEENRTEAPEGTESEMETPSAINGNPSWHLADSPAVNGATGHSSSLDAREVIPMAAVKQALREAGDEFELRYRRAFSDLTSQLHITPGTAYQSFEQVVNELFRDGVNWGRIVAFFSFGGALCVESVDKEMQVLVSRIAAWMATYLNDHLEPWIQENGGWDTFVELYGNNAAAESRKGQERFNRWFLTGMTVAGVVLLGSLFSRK

SMILES	IC50 [2]	IC50 [3]	further results
Cc1cc(C(F)(F)F)ccc1C1=C(CN2CCN(c3ccc(C(=O)NS(=O)(=O)c4ccc(NCC5CCOCC5)c([N+](=O)[O-])c4)c(Oc4cnc5[nH]ccc5c4)c3)CC2)CCC(C)(C)C1 [Compound 1-1, 4-(4-{[2-(2-methyl-4-trifluoromethylphenyl)-4,4-dimethylcyclohex-1-enyl]methyl}-piperazin-1-yl)-N-({3-nitro-4-[(tetrahydro-2H-pyran-4-ylmethyl)amino]phenyl}sulfonyl)-2-(1H-pyrrolo[2,3-b]pyridin-5-yloxy)-benzamide]	3.9 nM		Relative tumor volume (mean ± SD) [1]: 2.1 ± 0.6; T/C [1]: 40.4%; TGI [1]: 59.6%; Tumor volume (mean ± SD) [1]: 350 ± 80 mm^3; Weight change rate (mean ± SD) [1]: 8.20 ± 3.58%
Cc1cc(C(F)(F)F)ccc1C1=C(CN2CCN(c3ccc(C(=O)NS(=O)(=O)c4ccc(NC[C@@H]5COCCO5)c([N+](=O)[O-])c4)c(Oc4cnc5[nH]ccc5c4)c3)CC2)CCC(C)(C)C1 [Compound 2-1]	4.2 nM		
Cc1cc(C(F)(F)F)ccc1C1=C(CN2CCN(c3ccc(C(=O)NS(=O)(=O)c4ccc(NC[C@H]5COCCO5)c([N+](=O)[O-])c4)c(Oc4cnc5[nH]ccc5c4)c3)CC2)CCC(C)(C)C1 [Compound 3-1]	1.9 nM	1.49 nM	Relative tumor volume (mean ± SD) [1]: 1.3 ± 0.8; T/C [1]: 25.0%; TGI [1]: 75.0%; Tumor volume (mean ± SD) [1]: 213 ± 93 mm^3; Weight change rate (mean ± SD) [1]: 5.61 ± 3.61%
COCC(=O)N1CCO[C@@H](CNc2ccc(S(=O)(=O)NC(=O)c3ccc(N4CCN(CC5=C(c6ccc(C(F)(F)F)cc6C)CC(C)(C)CC5)CC4)cc3Oc3cnc4[nH]ccc4c3)cc2[N+](=O)[O-])C1 [Compound 4-1]	5.4 nM	0.7 nM	
Cc1cc(C(F)(F)F)ccc1C1=C(CN2CCN(c3ccc(C(=O)NS(=O)(=O)c4ccc(NC[C@H]5CCOC5)c([N+](=O)[O-])c4)c(Oc4cnc5[nH]ccc5c4)c3)CC2)CCC(C)(C)C1 [Compound 9-1, (R)-4-(4-{[2-(2-methyl-4-trifluoromethylphenyl)-4,4-dimethylcyclohex-1-enyl]methyl}-piperazin-1-yl)-N-({3-nitro-4-[((tetrahydrofuran-3-yl)methyl)amino]phenyl}sulfonyl)-2-(1H-pyrrolo[2,3-b]pyridin-5-yloxy)-benzamide]		1.26 nM	IC50 [4]: 219 nM
Cc1cc(C(F)(F)F)ccc1C1=C(CN2CCN(c3ccc(C(=O)NS(=O)(=O)c4ccc(NC[C@@H]5CCOC5)c([N+](=O)[O-])c4)c(Oc4cnc5[nH]ccc5c4)c3)CC2)CCC(C)(C)C1 [Compound 10-1, (S)-4-(4-{[2-(2-methyl-4-trifluoromethylphenyl)-4,4-dimethylcyclohex-1-enyl]methyl}-piperazin-1-yl)-N-({3-nitro-4-[((tetrahydrofuran-3-yl)methyl)amino]phenyl}sulfonyl)-2-(1H-pyrrolo[2,3-b]pyridin-5-yloxy)-benzamide]		1.1 nM	IC50 [4]: 102 nM
Cc1cc(C(F)(F)F)ccc1C1=C(CN2CCN(c3ccc(C(=O)NS(=O)(=O)c4ccc(NC[C@@H]5CCCO5)c([N+](=O)[O-])c4)c(Oc4cnc5[nH]ccc5c4)c3)CC2)CCC(C)(C)C1 [Compound 11-1, (S)-4-(4-{[2-(2-methyl-4-trifluoromethylphenyl)-4,4-dimethylcyclohex-1-enyl]methyl}-piperazin-1-yl)-N-({3-nitro-4-[((tetrahydrofuran-2-yl)methyl)amino]phenyl}sulfonyl)-2-(1H-pyrrolo[2,3-b]pyridin-5-yloxy)-benzamide]		1.79 nM	
CC(=O)N1CCO[C@@H](CNc2ccc(S(=O)(=O)NC(=O)c3ccc(N4CCN(CC5=C(c6ccc(C(F)(F)F)cc6C)CC(C)(C)CC5)CC4)cc3Oc3cnc4[nH]ccc4c3)cc2[N+](=O)[O-])C1 [Compound 18-1, (S)-4-(4-{[2-(2-methyl-4-trifluoromethylphenyl)-4,4-dimethylcyclohex-1-enyl]methyl}-piperazin-1-yl)-N-({3-nitro-4-[((4-acetylmorpholin-2-yl)methyl)amino]phenyl}sulfonyl)-2-(1H-pyrrolo[2,3-b]pyridin-5-yloxy)-benzamide]	5.5 nM	1.54 nM	

Further lines, with some results ahead:

IC50 [2]	IC50 [3]	SMILES	further results
3.4 nM	0.97 nM	CC(=O)N1CCO[C@H](CNc2ccc(S(=O)(=O)NC(=O)c3ccc(N4CCN(CC5=C(c6ccc(C(F)(F)F)cc6C)CC(C)(C)CC5)CC4)cc3Oc3cnc4[nH]ccc4c3)cc2[N+](=O)[O-])C1 [Compound 19-1, (R)-4-(4-{[2-(2-methyl-4-trifluoromethylphenyl)-4,4-dimethylcyclohex-1-enyl]methyl}-piperazin-1-yl)-N-({3-nitro-4-[((4-acetylmorpholin-2-yl)methyl)amino]phenyl}sulfonyl)-2-(1H-pyrrolo[2,3-b]pyridin-5-yloxy)-benzamide]	
	2.06 nM	Cc1cc(C(F)(F)F)ccc1C1=C(CN2CCN(c3ccc(C(=O)NS(=O)(=O)c4ccc(NC[C@H]5CN(C(=O)C(C)C)CCO5)c([N+](=O)[O-])c4)c(Oc4cnc5[nH]ccc5c4)c3)CC2)CCC(C)(C)C1 [Compound 20-1, (S)-4-(4-{[2-(2-methyl-4-trifluoromethylphenyl)-4,4-dimethylcyclohex-1-enyl]methyl}-piperazin-1-yl)-N-({3-nitro-4-[((4-isobutyrylmorpholin-2-yl)methyl)amino]phenyl}sulfonyl)-2-(1H-pyrrolo[2,3-b]pyridin-5-yloxy)-benzamide]	
2.5 nM	1.1 nM	Cc1cc(C(F)(F)F)ccc1C1=C(CN2CCN(c3ccc(C(=O)NS(=O)(=O)c4ccc(NC[C@@H]5CN(S(C)(=O)=O)CCO5)c([N+](=O)[O-])c4)c(Oc4cnc5[nH]ccc5c4)c3)CC2)CCC(C)(C)C1 [Compound 23-1, (R)-4-(4-{[2-(2-methyl-4-trifluoromethylphenyl)-4,4-dimethylcyclohex-1-enyl]methyl}-piperazin-1-yl)-N-({3-nitro-4-[((4-(methylsulfonyl)morpholin-2-yl)methyl)amino]phenyl}sulfonyl)-2-(1H-pyrrolo[2,3-b]pyridin-5-yloxy)-benzamide]	

From patent publication US12319689B2, “Methyl- and trifluoromethyl-containing disubstituted sulfonamide selective BCL-2 inhibitor” (CHIA TAI TIANQING PHARMACEUTICAL GROUP CO., LTD., priority 2019, dated 2025)
